Data: ChEMBL document CHEMBL3044672, “N9- and N7-(Chloromethyl Phenymethyl)Chloropurine Derivatives from , '-Dichloroxylenes: Synthesis and Anticancer Activity” (2005)

How the values were obtained:
Assay type in all cases: functional
CAKI-1 = experiment: Cytotoxicity against Homo sapiens (human) Caki1 cells after 48 hr by sulforhodamine B assay; conditions: CAKI-1, 48 h
EKVX = experiment: Cytotoxicity against Homo sapiens (human) EKVX cells after 48 hr by sulforhodamine B assay
DU-145 = experiment: Cytotoxicity against Homo sapiens (human) DU145 cells after 48 hr by sulforhodamine B assay; conditions: DU-145, 48 h
SK-OV-3 = experiment: Cytotoxicity against Homo sapiens (human) SKOV3 cells after 48 hr by sulforhodamine B assay; conditions: SK-OV-3, 48 h
RXF 393 = experiment: Cytotoxicity against Homo sapiens (human) RXF393 cells after 48 hr by sulforhodamine B assay; conditions: RXF 393, 48 h
BT-549 = experiment: Cytotoxicity against Homo sapiens (human) BT549 cells after 48 hr by sulforhodamine B assay; conditions: BT-549, 48 h
SK-MEL-5 = experiment: Cytotoxicity against Homo sapiens (human) SK-MEL-5 cells after 48 hr by sulforhodamine B assay; conditions: SK-MEL-5, 48 h
SF-295 = experiment: Cytotoxicity against Homo sapiens (human) SF295 cells after 48 hr by sulforhodamine B assay; conditions: SF-295, 48 h
NCI-H460 = experiment: Cytotoxicity against Homo sapiens (human) NCI-H460 cells after 48 hr by sulforhodamine B assay; conditions: NCI-H460, 48 h
M14 = experiment: Cytotoxicity against Homo sapiens (human) M14 cells after 48 hr by sulforhodamine B assay; conditions: M14, 48 h
HCC 2998 = experiment: Cytotoxicity against Homo sapiens (human) HCC2998 cells after 48 hr by sulforhodamine B assay; conditions: HCC 2998, 48 h
SK-MEL-2 = experiment: Cytotoxicity against Homo sapiens (human) SK-MEL-2 cells after 48 hr by sulforhodamine B assay; conditions: SK-MEL-2, 48 h
IGROV-1 = experiment: Cytotoxicity against Homo sapiens (human) IGROV1 cells after 48 hr by sulforhodamine B assay; conditions: IGROV-1, 48 h
OVCAR-8 = experiment: Cytotoxicity against Homo sapiens (human) OVCAR8 cells after 48 hr by sulforhodamine B assay; conditions: OVCAR-8, 48 h
UO-31 = experiment: Cytotoxicity against Homo sapiens (human) UO31 cells after 48 hr by sulforhodamine B assay; conditions: UO-31, 48 h
[1] = Cytotoxicity against Homo sapiens (human) NCI-ADR-RES cells after 48 hr by sulforhodamine B assay
CCRF-CEM = experiment: Cytotoxicity against Homo sapiens (human) CCRF-CEM cells after 48 hr by sulforhodamine B assay
SK-MEL-28 = experiment: Cytotoxicity against Homo sapiens (human) SK-MEL-28 cells after 48 hr by sulforhodamine B assay; conditions: SK-MEL-28, 48 h
MCF7 [2] = experiment: Cytotoxicity against Homo sapiens (human) MCF7 cells after 48 hr by sulforhodamine B assay; conditions: MCF7, 48 h
MOLT-4 = experiment: Cytotoxicity against Homo sapiens (human) MOLT4 cells after 48 hr by sulforhodamine B assay; conditions: MOLT-4, 48 h
NCI-H23 = experiment: Cytotoxicity against Homo sapiens (human) NCI-H23 cells after 48 hr by sulforhodamine B assay; conditions: NCI-H23, 48 h
LOX IMVI = experiment: Cytotoxicity against Homo sapiens (human) LOXIMVI cells after 48 hr by sulforhodamine B assay
OVCAR-3 = experiment: Cytotoxicity against Homo sapiens (human) OVCAR3 cells after 48 hr by sulforhodamine B assay; conditions: OVCAR-3, 48 h
T47D = experiment: Cytotoxicity against Homo sapiens (human) T47D cells after 48 hr by sulforhodamine B assay
MCF7 [3] = experiment: Cytotoxicity against Homo sapiens (human) MCF7 cells assessed as cell growth at 10^-4 M after 48 hr by Alamar blue assay; conditions: MCF7, 48 h, read-out: Activity
HT-29 = experiment: Cytotoxicity against Homo sapiens (human) HT-29 cells after 48 hr by sulforhodamine B assay; conditions: HT-29, 48 h
PC-3 = experiment: Cytotoxicity against Homo sapiens (human) PC3 cells after 48 hr by sulforhodamine B assay; conditions: PC-3, 48 h
OVCAR-5 = experiment: Cytotoxicity against Homo sapiens (human) OVCAR5 cells after 48 hr by sulforhodamine B assay; conditions: OVCAR-5, 48 h
U-251 = experiment: Cytotoxicity against Homo sapiens (human) U251 cells after 48 hr by sulforhodamine B assay; conditions: U-251, 48 h
HOP-62 = experiment: Cytotoxicity against Homo sapiens (human) HOP62 cells after 48 hr by sulforhodamine B assay; conditions: HOP-62, 48 h
NCI-H322M = experiment: Cytotoxicity against Homo sapiens (human) NCI-H322M cells after 48 hr by sulforhodamine B assay
SF-268 = experiment: Cytotoxicity against Homo sapiens (human) SF268 cells after 48 hr by sulforhodamine B assay; conditions: SF-268, 48 h
[4] = read-out: LC50 (the source's name)

Nc1nc(Cl)c2ncn(Cc3ccc(CCl)cc3)c2n1
TGI (CAKI-1): 9.77 µM | CC50 (CAKI-1; [4]): 34.7 µM | TGI (EKVX): 7.24 µM | CC50 (EKVX; [4]): 28.2 µM | LC50 (DU-145): 43.6 µM | TGI (DU-145): 19.5 µM | LC50 (SK-OV-3): 64.5 µM | TGI (SK-OV-3): 30.9 µM | TGI (RXF 393): 7.24 µM | CC50 (RXF 393; [4]): 35.5 µM | LC50 (50% lethal concentration) (BT-549): 69.2 µM | TGI (BT-549): 24.6 µM | LC50 (SK-MEL-5): 63.1 µM | TGI (SK-MEL-5): 31 µM | TGI (SF-295): 27.5 µM | CC50 (SF-295; [4]): 72.4 µM | TGI (NCI-H460): 9.95 µM | CC50 (NCI-H460; [4]): 63.1 µM | LC50 (M14): > 100 µM | TGI (M14): 38 µM | TGI (HCC 2998): 8.91 µM | CC50 (HCC 2998; [4]): 75.9 µM | LC50 (concentration killing 50% of cells) (SK-MEL-2): 74.1 µM | TGI (SK-MEL-2): 28.8 µM | LC50 (IGROV-1): 53.7 µM | TGI (IGROV-1): 22.9 µM | LC50 (concentration killing 50% of cells) (OVCAR-8): > 100 µM | TGI (OVCAR-8): 33.1 µM | LC50 (concentration causing 50% net cell kill) (UO-31): 55 µM | TGI (UO-31): 25.1 µM | LC50 (concentration killing 50% of cells) [1]: > 100 µM | TGI [1]: 26.9 µM | TGI (CCRF-CEM): > 100 µM | CC50 (CCRF-CEM; [4]): > 100 µM | LC50 (concentration killing 50% of cells) (SK-MEL-28): > 100 µM | TGI (SK-MEL-28): 44.7 µM | LC50 (concentration killing 50% of cells) (MCF7 [2]): > 100 µM | TGI (MCF7 [2]): 17 µM | TGI (MOLT-4): > 100 µM | CC50 (MOLT-4; [4]): > 100 µM | TGI (NCI-H23): 30.2 µM | CC50 (NCI-H23; [4]): 77.6 µM | LC50 (LOX IMVI): > 100 µM | TGI (LOX IMVI): 43.6 µM | LC50 (OVCAR-3): 22.9 µM | TGI (OVCAR-3): 5.5 µM | LC50 (T47D): > 100 µM | TGI (T47D): 39.8 µM | growth at 100 µM (MCF7 [3]): 0% | TGI (HT-29): 27.5 µM | CC50 (HT-29; [4]): 77.6 µM | LC50 (concentration causing 50% cell kill) (PC-3): 70.8 µM | TGI (PC-3): 25.1 µM | TGI (OVCAR-5): 14.8 µM | CC50 (OVCAR-5; [4]): > 100 µM | LC50 (concentration killing 50% of cells) (U-251): 44.7 µM | TGI (U-251): 12 µM | TGI (HOP-62): 27.5 µM | CC50 (HOP-62; [4]): 91.2 µM | TGI (NCI-H322M): 42.7 µM | CC50 (NCI-H322M; [4]): 87.1 µM | TGI (SF-268): 8.32 µM | CC50 (SF-268; [4]): 38.9 µM
